Experimental data reported in ChEMBL document CHEMBL1201862, “PubChem BioAssay data set” (2004).
Each block holds one compound with its values, some of them ahead of it. Activity calls are given as the source filed them.

How the values were obtained:
[1] = inhibitors of cytokine-induced nitrite release, dose response, cell-based, Griess absorbance, INS-1E, dry powder, set 3 (AID 488870); format: functional; details: Rattus norvegicus
[2] = system: INS1; assay: inhibitors of cytokine-induced nitrite release, dose response, cell-based, Griess absorbance, INS-1E, dry powder, set 2 (AID 488868); format: functional; details: Rattus norvegicus
[3] = system: INS1; assay: INS-1E beta-cell viability without cytokines, dose response, cytotoxicity control for beta-cell cytokine protection project, CellTiter-Glo luminescence, dry powder (AID 488864); format: functional, cell-based; details: Rattus norvegicus
[4] = biological target: Latent membrane protein 1 (Human herpesvirus 4 (strain B95-8), UniProt P03230); assay: TES1-eGFP NF-kB reporter inhibition versus Tet-On dsRED, dose response, selectivity assay for LMP1 NF-kB inhibitor project, imaging, HEK293T, dual-color eGFP/dsRED, cherry-picks (AID 588398); format: functional, cell-based
[5] = biological target: Glycogen synthase kinase-3 alpha (Homo sapiens, UniProt P49840); format: functional;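 also: GSK3A result taken from a broad kinome-wide kinase panel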
[6] = biological target: Ephrin type-A receptor 2 (Homo sapiens, UniProt P29317); format: functional;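 also: EPHA2 tested as one member of a kinome-wide kinase panel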
[7] = system: H9c2; assay: cells; format: functional, cell-based; details: Rattus norvegicus, H9c2, Myocardium;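 also: confirmatory concentration-response retest of ultra-high-throughput screening hits for modulation of myocardial damage; cell death induced by hydrogen peroxide oxidative stress; compound pretreatment for 60 min then peroxide exposure for 2 h; potency is for protecting the cells against peroxide damage rather than for killing them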
[8] = biological target: T1, High affinity choline transporter 1 (Homo sapiens, UniProt Q9GZV3); assay: CHT activators, dose response, cell-based, 10-point CRC, membrane potential dye (AID 602376); format: functional
T1 sequence (Q9GZV3 whole entry): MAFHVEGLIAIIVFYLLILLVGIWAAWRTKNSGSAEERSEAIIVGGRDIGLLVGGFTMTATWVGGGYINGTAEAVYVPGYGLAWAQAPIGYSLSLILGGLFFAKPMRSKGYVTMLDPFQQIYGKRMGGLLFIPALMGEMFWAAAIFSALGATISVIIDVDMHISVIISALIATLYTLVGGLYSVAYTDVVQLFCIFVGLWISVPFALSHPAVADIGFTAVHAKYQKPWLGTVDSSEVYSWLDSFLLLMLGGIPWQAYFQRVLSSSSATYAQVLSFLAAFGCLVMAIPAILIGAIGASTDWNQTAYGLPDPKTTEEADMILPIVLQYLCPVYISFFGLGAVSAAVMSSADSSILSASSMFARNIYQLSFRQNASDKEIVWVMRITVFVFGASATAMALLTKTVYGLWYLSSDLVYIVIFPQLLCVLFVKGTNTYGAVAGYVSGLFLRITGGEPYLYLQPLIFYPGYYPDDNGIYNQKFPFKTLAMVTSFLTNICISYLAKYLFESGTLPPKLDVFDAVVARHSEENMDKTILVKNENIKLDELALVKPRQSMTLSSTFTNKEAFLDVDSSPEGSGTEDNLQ

[9] = biological target: T2, Sentrin-specific protease 8 (Homo sapiens, UniProt Q96LD8); assay: SENP8 protease inhibitors, SAR follow-up, biochemical, luminescence (AID 504501); format: functional
T2 sequence (Q96LD8 whole entry): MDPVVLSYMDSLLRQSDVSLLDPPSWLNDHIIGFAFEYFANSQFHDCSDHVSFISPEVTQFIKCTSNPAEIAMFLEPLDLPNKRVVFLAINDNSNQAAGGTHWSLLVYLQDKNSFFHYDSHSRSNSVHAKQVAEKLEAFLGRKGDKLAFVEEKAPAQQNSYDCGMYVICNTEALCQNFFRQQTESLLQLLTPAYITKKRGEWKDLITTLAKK

[10] = biological target: T3, Caspase-3 (Homo sapiens, UniProt P42574); assay: caspase-3 inhibitors as off-family protease, SAR follow-up, selectivity assay for SENP protease inhibitor project, biochemical, luminescence, set 2 (AID 588599); format: functional
T3 sequence (P42574 whole entry): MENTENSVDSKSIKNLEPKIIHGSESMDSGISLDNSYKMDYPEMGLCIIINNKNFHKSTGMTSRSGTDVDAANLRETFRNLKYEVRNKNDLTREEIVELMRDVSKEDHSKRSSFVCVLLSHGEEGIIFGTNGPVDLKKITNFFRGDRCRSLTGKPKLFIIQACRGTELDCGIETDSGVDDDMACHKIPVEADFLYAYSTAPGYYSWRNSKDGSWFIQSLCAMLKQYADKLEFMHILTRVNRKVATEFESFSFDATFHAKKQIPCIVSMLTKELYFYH

[11] = biological target: T2, Sentrin-specific protease 8; assay: SENP8 protease inhibitors, SAR follow-up, biochemical, luminescence, set 2 (AID 588601); format: functional
[12] = biological target: T3, Caspase-3; assay: SAR Analysis of small molecule inhibitors of Sentrin-specific proteases (SENPs) using a Caspase-3 Selectivity assay. [Related pubchem assays (depositor defined):AID2540, AID2599, AID434973, AID489001]; format: functional
[13] = biological target: T4, Sentrin-specific protease 7 (Homo sapiens, UniProt Q9BQF6); assay: SENP7 protease inhibitors, SAR follow-up, biochemical, luminescence, set 2 (AID 588600); format: functional
T4 sequence (Q9BQF6 whole entry): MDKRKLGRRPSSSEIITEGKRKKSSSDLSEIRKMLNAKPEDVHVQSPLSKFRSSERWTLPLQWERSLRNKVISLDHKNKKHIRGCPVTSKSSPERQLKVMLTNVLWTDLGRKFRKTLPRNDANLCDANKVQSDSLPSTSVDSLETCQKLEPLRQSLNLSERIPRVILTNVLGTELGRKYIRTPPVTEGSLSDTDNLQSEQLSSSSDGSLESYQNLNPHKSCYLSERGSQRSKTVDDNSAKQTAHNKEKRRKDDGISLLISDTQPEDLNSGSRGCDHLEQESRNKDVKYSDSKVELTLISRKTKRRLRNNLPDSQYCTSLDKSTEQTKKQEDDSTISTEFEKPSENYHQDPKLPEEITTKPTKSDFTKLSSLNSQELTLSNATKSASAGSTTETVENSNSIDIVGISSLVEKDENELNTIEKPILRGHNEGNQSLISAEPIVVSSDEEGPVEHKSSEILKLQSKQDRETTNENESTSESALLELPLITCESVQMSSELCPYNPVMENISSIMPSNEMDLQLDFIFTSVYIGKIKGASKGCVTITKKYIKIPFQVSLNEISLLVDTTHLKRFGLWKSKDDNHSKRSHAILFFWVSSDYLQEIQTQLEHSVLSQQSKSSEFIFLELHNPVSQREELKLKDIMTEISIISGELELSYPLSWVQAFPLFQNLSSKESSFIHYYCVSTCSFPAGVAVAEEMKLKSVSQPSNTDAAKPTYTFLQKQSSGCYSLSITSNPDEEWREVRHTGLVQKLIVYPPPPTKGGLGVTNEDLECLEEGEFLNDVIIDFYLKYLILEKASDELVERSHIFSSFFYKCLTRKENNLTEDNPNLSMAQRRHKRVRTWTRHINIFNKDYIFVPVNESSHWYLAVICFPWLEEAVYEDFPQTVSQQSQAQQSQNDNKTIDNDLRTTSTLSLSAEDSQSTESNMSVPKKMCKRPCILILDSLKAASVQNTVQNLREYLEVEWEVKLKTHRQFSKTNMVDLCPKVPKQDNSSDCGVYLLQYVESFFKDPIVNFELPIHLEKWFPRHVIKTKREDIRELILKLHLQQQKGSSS

[14] = biological target: T5, Sentrin-specific protease 6 (Homo sapiens, UniProt Q9GZR1); assay: SAR Analysis of small molecule inhibitors of Sentrin-specific protease 6 (SENP6) using a Luminescent assay. [Related pubchem assays (depositor defined):AID2582, AID2599]; format: functional
T5 sequence (Q9GZR1 whole entry): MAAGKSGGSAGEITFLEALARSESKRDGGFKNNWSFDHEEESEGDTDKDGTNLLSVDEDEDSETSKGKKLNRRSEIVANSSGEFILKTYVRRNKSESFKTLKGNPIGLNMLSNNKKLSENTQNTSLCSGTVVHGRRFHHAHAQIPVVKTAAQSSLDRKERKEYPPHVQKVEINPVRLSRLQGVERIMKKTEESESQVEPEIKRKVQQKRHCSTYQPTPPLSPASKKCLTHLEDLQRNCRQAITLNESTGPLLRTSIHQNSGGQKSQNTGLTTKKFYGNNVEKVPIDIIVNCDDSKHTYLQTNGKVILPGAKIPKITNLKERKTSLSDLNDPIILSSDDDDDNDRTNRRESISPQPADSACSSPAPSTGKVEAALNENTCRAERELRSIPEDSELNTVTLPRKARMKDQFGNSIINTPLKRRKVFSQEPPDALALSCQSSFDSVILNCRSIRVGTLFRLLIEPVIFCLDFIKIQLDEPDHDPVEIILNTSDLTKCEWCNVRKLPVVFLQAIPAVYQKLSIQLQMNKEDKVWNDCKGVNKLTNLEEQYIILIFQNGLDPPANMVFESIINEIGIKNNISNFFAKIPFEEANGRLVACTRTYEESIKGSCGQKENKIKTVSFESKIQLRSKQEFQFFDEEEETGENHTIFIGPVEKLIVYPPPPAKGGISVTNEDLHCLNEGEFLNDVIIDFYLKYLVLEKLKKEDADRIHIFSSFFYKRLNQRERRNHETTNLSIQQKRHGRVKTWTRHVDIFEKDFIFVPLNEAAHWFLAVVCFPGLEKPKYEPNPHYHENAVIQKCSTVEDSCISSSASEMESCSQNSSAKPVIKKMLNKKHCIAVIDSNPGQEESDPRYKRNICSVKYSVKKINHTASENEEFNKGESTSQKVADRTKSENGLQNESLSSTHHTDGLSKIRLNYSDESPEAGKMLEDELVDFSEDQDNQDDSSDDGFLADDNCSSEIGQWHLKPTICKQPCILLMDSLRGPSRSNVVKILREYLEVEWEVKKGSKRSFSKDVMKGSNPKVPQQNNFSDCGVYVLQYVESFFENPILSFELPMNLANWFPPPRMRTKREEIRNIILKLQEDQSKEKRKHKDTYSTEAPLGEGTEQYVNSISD

[15] = biological target: T5, Sentrin-specific protease 6; assay: SENP6 protease inhibitors, SAR follow-up, biochemical, luminescence, set 2 (AID 588598); format: functional
[16] = biological target: T4, Sentrin-specific protease 7; assay: SENP7 protease inhibitors, SAR follow-up, biochemical, luminescence (AID 504497); format: functional
[17] = biological target: T6, CAAX prenyl protease 2 (Saccharomyces cerevisiae S288c, UniProt Q03530); format: biochemical
T6 sequence (Q03530 whole entry): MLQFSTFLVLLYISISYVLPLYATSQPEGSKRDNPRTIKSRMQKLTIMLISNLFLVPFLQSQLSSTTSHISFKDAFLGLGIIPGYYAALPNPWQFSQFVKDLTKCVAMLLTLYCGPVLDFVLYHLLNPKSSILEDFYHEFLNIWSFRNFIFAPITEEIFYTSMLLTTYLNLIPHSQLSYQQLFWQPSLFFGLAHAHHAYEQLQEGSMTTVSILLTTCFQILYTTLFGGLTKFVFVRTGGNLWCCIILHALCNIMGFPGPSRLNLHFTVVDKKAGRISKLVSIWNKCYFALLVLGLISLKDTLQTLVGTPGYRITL

[18] = mammalian cell cytotoxicity, dose response, cytotoxicity control, plate reader, cherry-pick samples (AID 504397); format: functional, cell-based
[19] = biological target: T6, CAAX prenyl protease 2; assay: yeast Rce1 CaaX protease inhibitors, dose response, biochemical, plate reader, dry powder retest (AID 588851)
[20] = NIH-3T3 fibroblast cytotoxicity, dose response, cytotoxicity control, cell-based, fluorescence, Alamar Blue, secondary assay (AID 2327); format: functional;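 also: NIH-3T3 mouse fibroblasts cultured with fluconazole at 8 µg/mL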
[21] = C. albicans growth with fluconazole, confirmation, fluorescence, retest (AID 2467); format: functional, cell-based
[22] = biological target: Protein disulfide-isomerase (Homo sapiens, UniProt P07237); assay: PDI inhibitors, insulin aggregation turbidity, dose response, biochemical, absorbance, cherry-picked samples (AID 602350); format: functional
[23] = biological target: T7, Hepatocyte nuclear factor 4-alpha (Homo sapiens, UniProt P41235); format: functional, cell-based;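 also: biochemical luminescence-based dose-response counterscreen measuring inhibition of HNF4 dimerization, run alongside a screen for blockers of ABHD5–perilipin-5 interaction; split luciferase complementation of HNF4 fusion proteins in cell lysate measuring dimerization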
T7 sequence (P41235 whole entry): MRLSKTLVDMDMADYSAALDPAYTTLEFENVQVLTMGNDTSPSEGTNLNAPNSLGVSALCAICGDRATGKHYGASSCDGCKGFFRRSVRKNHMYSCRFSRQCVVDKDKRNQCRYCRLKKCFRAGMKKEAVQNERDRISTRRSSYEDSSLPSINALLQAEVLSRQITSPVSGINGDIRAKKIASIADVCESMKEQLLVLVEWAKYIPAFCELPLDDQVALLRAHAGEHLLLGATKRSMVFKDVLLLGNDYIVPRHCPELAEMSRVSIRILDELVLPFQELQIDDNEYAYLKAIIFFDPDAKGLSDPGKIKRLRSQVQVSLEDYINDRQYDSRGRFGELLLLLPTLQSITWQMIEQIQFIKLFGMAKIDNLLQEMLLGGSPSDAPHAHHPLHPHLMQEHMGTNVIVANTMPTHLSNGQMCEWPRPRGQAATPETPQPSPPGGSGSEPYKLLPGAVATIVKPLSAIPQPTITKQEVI

[24] = biological target: Multidrug resistance protein CDR2 (Candida albicans (strain SC5314 / ATCC MYA-2876) (Yeast), UniProt P78595); assay: CaCDR2 efflux pump inhibitors in yeast, dose response, S. cerevisiae AD1-8u, singleplex, Cherry Pick1 hits (AID 588604); format: functional
Chain of Multidrug resistance protein CDR2 (P78595 whole entry): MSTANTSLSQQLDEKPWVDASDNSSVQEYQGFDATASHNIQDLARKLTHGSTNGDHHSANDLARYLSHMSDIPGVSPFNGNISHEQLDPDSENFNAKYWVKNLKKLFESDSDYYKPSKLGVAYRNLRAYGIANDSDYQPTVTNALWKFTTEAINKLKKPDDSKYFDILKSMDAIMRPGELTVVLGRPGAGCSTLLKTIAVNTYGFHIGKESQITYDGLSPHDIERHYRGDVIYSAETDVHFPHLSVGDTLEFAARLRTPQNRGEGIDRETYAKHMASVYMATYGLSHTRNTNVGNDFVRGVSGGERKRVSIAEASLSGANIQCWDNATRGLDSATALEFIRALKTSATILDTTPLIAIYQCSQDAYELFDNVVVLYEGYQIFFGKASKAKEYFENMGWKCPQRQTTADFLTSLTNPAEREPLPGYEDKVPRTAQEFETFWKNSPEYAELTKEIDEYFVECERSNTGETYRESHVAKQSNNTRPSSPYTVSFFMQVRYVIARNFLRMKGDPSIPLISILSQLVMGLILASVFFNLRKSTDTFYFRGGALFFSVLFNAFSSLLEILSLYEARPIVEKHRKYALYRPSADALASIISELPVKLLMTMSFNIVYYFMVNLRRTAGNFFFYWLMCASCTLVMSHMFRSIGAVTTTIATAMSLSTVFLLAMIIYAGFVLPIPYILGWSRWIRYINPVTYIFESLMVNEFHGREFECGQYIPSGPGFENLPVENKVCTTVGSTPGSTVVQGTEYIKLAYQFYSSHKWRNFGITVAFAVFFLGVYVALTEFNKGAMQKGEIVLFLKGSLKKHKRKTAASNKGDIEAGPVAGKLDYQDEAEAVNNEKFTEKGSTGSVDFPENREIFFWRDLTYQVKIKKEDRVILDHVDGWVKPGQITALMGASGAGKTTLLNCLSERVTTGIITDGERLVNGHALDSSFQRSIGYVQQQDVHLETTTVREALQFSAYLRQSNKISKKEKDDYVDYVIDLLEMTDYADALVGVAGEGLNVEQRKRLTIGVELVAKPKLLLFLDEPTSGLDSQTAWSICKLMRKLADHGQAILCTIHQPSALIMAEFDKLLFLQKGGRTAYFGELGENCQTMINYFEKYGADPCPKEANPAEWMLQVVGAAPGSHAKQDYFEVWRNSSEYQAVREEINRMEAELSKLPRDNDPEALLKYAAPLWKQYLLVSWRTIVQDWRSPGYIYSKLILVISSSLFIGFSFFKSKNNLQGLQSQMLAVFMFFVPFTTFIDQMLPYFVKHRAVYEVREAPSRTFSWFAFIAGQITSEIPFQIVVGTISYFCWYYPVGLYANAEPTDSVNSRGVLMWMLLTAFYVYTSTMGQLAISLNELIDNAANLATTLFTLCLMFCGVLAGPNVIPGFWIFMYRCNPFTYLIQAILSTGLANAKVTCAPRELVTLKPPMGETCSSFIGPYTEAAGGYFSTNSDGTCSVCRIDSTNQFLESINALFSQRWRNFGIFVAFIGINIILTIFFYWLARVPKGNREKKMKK

Chain of Glycogen synthase kinase-3 alpha (P49840 whole entry): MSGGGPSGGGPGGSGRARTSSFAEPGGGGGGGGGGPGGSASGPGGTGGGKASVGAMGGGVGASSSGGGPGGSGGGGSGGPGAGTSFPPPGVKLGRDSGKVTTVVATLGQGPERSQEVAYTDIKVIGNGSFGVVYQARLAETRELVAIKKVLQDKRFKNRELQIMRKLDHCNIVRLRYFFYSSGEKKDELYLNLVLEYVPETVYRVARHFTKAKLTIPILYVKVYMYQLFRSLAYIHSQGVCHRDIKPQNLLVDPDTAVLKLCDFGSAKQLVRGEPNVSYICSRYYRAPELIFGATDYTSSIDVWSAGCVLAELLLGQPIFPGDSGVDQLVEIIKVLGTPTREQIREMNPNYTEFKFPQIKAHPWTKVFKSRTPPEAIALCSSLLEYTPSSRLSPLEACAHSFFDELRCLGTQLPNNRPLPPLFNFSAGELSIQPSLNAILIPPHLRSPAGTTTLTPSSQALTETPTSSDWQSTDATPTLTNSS
Chain of Protein disulfide-isomerase (P07237 whole entry, the tested form may be a part): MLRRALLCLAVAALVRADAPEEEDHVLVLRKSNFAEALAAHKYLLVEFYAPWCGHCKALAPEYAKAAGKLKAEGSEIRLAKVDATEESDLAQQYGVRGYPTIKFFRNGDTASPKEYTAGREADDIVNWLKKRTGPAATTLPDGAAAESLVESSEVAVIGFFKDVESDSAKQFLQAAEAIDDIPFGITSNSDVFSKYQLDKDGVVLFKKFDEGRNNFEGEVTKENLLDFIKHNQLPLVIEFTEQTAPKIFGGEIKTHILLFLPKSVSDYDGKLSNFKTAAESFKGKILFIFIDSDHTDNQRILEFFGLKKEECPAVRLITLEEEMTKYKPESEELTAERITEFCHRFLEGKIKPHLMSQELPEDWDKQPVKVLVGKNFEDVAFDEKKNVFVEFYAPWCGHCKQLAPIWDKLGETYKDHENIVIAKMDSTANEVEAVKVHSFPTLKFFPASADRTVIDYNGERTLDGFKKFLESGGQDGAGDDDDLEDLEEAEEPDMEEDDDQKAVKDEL
Chain of Latent membrane protein 1 (P03230 whole entry): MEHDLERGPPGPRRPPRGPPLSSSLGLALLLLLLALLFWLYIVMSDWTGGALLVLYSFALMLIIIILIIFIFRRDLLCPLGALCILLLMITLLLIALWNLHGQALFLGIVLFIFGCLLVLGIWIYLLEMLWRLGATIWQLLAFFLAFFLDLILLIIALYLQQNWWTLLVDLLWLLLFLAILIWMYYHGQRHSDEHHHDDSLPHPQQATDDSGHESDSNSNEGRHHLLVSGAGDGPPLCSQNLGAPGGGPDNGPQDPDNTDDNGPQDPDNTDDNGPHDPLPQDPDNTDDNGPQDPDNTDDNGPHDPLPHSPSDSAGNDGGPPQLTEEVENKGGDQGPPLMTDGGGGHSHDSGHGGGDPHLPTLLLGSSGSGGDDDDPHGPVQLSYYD
Chain of Ephrin type-A receptor 2 (P29317 whole entry): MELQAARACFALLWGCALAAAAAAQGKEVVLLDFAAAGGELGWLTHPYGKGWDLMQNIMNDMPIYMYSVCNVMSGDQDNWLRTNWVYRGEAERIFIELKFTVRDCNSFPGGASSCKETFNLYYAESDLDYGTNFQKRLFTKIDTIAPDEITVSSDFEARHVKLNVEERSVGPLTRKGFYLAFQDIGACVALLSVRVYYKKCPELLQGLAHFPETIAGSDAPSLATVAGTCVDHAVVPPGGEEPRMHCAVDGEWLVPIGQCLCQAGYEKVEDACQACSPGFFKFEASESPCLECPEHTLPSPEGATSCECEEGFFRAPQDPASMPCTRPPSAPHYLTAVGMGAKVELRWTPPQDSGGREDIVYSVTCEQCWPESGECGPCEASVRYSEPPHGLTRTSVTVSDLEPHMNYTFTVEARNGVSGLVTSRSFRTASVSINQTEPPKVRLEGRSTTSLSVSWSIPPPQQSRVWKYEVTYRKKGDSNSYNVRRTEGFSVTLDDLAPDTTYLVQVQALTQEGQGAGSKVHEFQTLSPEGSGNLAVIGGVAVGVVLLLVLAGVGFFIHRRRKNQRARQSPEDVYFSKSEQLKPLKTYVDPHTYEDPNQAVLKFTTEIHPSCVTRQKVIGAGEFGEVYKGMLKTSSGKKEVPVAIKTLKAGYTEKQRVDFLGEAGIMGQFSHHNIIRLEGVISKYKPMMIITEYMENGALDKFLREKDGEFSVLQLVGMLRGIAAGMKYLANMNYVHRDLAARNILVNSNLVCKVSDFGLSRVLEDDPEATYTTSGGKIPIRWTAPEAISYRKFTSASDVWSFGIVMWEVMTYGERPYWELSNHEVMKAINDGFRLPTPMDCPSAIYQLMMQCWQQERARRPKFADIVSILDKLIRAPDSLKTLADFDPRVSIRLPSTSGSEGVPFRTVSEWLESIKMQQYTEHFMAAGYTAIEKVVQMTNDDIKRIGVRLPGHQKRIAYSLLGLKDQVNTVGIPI

Compound: C[C@@H]1CN([C@@H](C)CO)C(=O)c2cccc(NC(=O)Nc3cccc4ccccc34)c2O[C@H]1CN(C)S(=O)(=O)c1ccc(OC(F)(F)F)cc1
- AC50 [1]: 20.3 µM (active)
- AC50 [2]: 16.5 µM (active)
- AC50 [3]: 18.5 µM (active)

- AC50 [4]: 66.5 µM (active)
Compound: O=C(Nc1ccccn1)NC1CCCCC1

- Ki [5]: 7.94 µM (active)
- Ki [6]: 2 µM (active)
Compound: Cc1ccc(NC(=O)c2cnn3c(-c4ccccc4)ccnc23)cc1C

Compound: COC(=O)c1ccc(C(NC(=O)OCc2ccccc2)/C(C)=C/[C@@H](C)C(=O)NCc2ccc(OC)c(OC)c2)cc1 (some centres undefined)
- IC50 [7]: 10.6 µM (active)
- EC50 [8]: 12.3 µM (active)

- IC50 [10]: 1.17 µM (active)
- IC50 [12]: 1.4 µM (active)
- IC50 [13]: 1.35 µM (active)
- IC50 [14]: 1.4 µM (active)
- IC50 [15]: 1.26 µM (active)
- IC50 [16]: 1.1 µM (active)
Compound: COc1ccc(/C=C/c2noc(-c3ccccc3O)n2)cc1
- IC50 [9]: 1.3 µM (active)
- IC50 [11]: 1.19 µM (active)

Compound: Cc1ccc(SCc2c(C(=O)N/N=C/c3ccccc3)nnn2-c2nonc2N)cc1
- AC50 [17]: 0.141 µM (active)
- AC50 [18]: 73 µM (active)
- AC50 [19]: 3.7 µM (active)

Compound: O=C(/C=C/c1ccc(NC(=O)c2ccccc2-c2ccccc2C(=O)O)cc1)c1ccccc1
- EC50 [20]: > 150 µM (inactive)
- EC50 [21]: > 38 µM (not active)
- AC50 [22]: 11.4 µM (active)
- IC50 [23]: 8.66 µM (active)

Compound: O=C(Cn1c(COc2ccccc2)nc2ccccc21)Nc1cc(Cl)c(Cl)cc1Cl
- EC50 [24]: 15.7 µM (active)
